# Reference: patent US9115153B2, “Aza metal complexes” (Canon Kabushiki Kaisha, priority 2007, dated 2015)
# Key:
# [1] = T1 relaxation time measurement by 7T MRI (inversion recovery FISP); format: physicochemical; settings: 1.3 mM in ultrapure water, 24° C.
# Protocol: The T1 relaxation time measurement by MRI was performed using a 7T MRI apparatus (BioSpec 70/20 manufactured Bruker Biospin K.K.). The T1 relaxation time was measured under the measurement conditions of TR/TE 3/1.5 ms, FOV=8*4 cm, matrix=128*128, NA=2 and a temperature of 24° C. using an inversion recovery FISP method. Aqueous solutions of six different concentrations (1.3 mM, 0.65 mM, 0.325 mM, 0.13 mM, 0.026 mM and 0.013 mM) were prepared by dissolving complex (R)-11 in ultrapure water, and each of the aqueous solutions was placed into an Eppendorf tube and used directly as a measurement sample.
# The T1 relaxation time was measured in the same manner as in Example 5. A GdCl3 aqueous solution was prepared by dissolving commercially available GdCl3.6H2O in ultrapure water so that the concentration was adjusted to 1.3 mM, and Gd (DTPA) aqueous solutions were prepared by diluting a commercially available Gd (DTPA) aqueous solution (630 mM) with ultrapure water so that the concentration was adjusted to 2.0, 1.3, 1.0, 0.5 and 0.25 mM, respectively. Each of the aqueous solutions was placed into an Eppendorf tube and used directly as a measurement sample.
# [2] = T1 relaxation time measurement by 500 MHz NMR in FBS solution; format: physicochemical; settings: FBS 80%, heavy water 10%, H2O 10%; otherwise as Example 4 / Comparative Example 1 (500 MHz NMR)
# Protocol: The T1 time was measured in the same manner as in Example 4 except that the NMR measurement sample was changed to an FBS (fetal bovine serum) solution of the complex (R)-11 (FBS concentration: 80%, heavy water concentration: 10%, H2O concentration: 10%).
# The T1 time was measured in the same manner as in Comparative Example 1 except that the NMR measurement sample was changed to an FBS (fetal bovine serum) solution of GdCl3 or Gd (DTPA) (FBS concentration: 80%, heavy water concentration: 10%, H2O concentration: 10%).
# [3] = XAFS measurement and analysis (coordination number); format: physicochemical; settings: for comparison
# Protocol: The XAFS analysis of the complex (R)-11 was performed at Spring-8.
# Specifically, the number of the coordinated water molecules was estimated by removing background from XAFS spectra and performing fitting using Fourier transformation or Fourier inverse transformation.
# Further, the XAFS spectra were obtained by a transmission method using an ion chamber for a pellet (in a powder state) of the complex ((R)-11) and a fluorescence method using a multi-element semiconductor detector for an aqueous solution of the complex ((R)-11), respectively.
# When fitting was performed without fixing the proximal coordination number to 9, the following results were obtained. In a powder state, the coordination number of O was 6.99 and the distance between atoms of Gd and O was 2.421 Å, and in an aqueous solution (3 mM) the coordination number of O was 9.77 and the distance between atoms of Gd and O was 2.430 Å.
# [4] = T1 relaxation time measurement by 500 MHz NMR (aqueous solution); format: physicochemical; settings: 0.13 mM aqueous solution, 10% heavy water, 27° C., inversion recovery
# Protocol: The T1 relaxation time measurement was performed using a broadband probe on a 500 MHz NMR apparatus (Avance 500 manufactured by Bruker Biospin K.K.). The T1 relaxation times were measured at 27° C. using an inversion recovery method.
# First, a Gd triamine 2nd G-12-ol-dendrimer complex (R)-11 was dissolved in 1 ml of ultrapure water to prepare an aqueous solution in which the concentration of complex (R)-11 was 24.05 mM. In addition, the concentration of complex (R)-11 was determined from the Gd concentration by inductive coupled plasma emission spectrometry (ICP emission spectrometry). Next, the aqueous solution was diluted with ultrapure water and heavy water so that the concentration of complex (R)-11 was 0.13 mM and the concentration of heavy water was 10%, and the resulting aqueous solution was used as an NMR measurement sample. […] The data shown in FIG. 1 clarified that the T1 time of water of the complex (R)-11 aqueous solution was 429 ms.
# The T1 relaxation time was measured in the same manner as in Example 4. […] The T1 relaxation time of water for the Gd (DTPA) aqueous solution sample determined from the data shown in FIG. 2 was 1333 ms, which is considerably longer than the T1 relaxation time of complex (R)-11.
# [5] = aqueous solutions of 2.0, 1.0, 0.5 and 0.25 mM, saturation recovery spin echo, 24° C.
coordination number of water molecule [3],T1 relaxation ability r1 [5],SMILES,T1 [1],T1 time of water for FBS solution [2],T1 relaxation time of water [4]
1,4.661 L/mmol/s,O=C([O-])CN(CCN(CC(=O)[O-])CC(=O)O)CCN(CC(=O)[O-])CC(=O)O.[Gd+3] [Gd (DTPA)],205.653 ms,1429 ms,1333 ms
,,[Cl][Gd]([Cl])[Cl] [GdCl3],58.991 ms,1708 ms,712 ms
1,,"O=C([O-])CN1CCN(CC(=O)[O-])CCN(CC(=O)O)CCN(CC(=O)[O-])CC1.[Gd+3] [Gd (DOTA), reference compound]",,,
